Assay results published in US20050020631A1, “3-Substituted benzofurans as therapeutic agents” (priority 2003, published 2005).

Legend:
[1] = biological target: T1, p101/p110γ protein (PI3Kγ) (Homo sapiens, UniProt P48736); assay: PI3Kγ In Vitro Kinase Assay; format: biochemical; conditions: purified recombinant p101/p110γ with G protein β1/γ2 subunits; 20 μM ATP, [γ-32P-ATP]; 25 μM PIP2 lipid micelles; 20 minutes at room temperature
T1 construct: HA; made in house; host or cells: Spodoptera frugiperda (Sf9) cells, baculovirus coinfection
T1 sequence (P48736 whole entry, species assumed): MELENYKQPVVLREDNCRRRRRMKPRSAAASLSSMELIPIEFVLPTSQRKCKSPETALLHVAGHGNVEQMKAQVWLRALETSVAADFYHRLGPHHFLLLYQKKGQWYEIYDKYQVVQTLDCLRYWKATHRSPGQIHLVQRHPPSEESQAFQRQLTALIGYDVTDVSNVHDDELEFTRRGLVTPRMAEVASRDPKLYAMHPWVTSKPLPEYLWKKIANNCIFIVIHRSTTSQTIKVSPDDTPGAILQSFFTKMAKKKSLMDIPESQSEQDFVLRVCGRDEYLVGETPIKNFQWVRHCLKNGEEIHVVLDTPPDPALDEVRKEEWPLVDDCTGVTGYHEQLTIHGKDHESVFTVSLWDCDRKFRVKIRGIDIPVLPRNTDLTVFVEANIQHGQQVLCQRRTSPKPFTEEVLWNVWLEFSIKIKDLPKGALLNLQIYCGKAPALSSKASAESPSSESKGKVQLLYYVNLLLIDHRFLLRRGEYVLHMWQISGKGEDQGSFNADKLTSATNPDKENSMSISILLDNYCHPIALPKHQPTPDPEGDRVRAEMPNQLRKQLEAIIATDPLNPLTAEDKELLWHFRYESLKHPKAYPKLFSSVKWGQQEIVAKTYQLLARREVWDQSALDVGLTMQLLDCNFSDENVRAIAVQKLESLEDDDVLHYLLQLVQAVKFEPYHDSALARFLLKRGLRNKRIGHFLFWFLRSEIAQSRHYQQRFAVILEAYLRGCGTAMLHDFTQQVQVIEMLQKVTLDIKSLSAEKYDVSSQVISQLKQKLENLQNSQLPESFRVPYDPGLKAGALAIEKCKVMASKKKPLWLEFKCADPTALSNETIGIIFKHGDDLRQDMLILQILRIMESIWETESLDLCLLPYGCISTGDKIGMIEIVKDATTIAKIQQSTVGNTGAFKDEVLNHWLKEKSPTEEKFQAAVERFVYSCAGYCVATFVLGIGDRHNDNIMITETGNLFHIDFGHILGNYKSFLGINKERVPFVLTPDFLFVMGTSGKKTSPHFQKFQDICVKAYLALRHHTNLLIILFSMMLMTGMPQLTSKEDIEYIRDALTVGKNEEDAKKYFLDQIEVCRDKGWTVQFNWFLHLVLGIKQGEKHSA
T1 sequence (Q8WYR1 whole entry partner, species assumed): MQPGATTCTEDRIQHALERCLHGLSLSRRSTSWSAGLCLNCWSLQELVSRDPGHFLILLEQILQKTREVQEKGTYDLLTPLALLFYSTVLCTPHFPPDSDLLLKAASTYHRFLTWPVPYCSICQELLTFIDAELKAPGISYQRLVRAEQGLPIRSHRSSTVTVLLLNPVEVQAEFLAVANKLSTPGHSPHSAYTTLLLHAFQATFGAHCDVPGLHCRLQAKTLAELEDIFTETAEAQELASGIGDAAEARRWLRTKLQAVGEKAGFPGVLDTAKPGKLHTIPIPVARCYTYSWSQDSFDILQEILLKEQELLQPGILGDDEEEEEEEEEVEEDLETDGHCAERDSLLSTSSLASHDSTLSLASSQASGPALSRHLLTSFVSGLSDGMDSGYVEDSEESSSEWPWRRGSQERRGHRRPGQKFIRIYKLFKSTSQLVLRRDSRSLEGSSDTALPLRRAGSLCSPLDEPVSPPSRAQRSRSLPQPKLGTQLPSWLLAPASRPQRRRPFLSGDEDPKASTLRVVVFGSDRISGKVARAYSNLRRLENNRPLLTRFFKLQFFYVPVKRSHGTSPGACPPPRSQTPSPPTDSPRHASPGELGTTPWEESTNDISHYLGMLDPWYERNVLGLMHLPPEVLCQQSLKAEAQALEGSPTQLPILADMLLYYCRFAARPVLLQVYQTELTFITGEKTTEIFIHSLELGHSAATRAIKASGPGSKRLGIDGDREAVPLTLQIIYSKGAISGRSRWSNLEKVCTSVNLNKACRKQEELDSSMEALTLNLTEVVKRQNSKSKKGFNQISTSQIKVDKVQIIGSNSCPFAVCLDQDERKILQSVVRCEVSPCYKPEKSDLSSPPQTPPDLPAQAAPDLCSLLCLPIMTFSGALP
Method: Spodtera frugiperda cells, grown in ESF921 media, were coinfected with baculovirus expressing a glu-tagged p101 and baculovirus expressing an HA-tagged p110γ, at a 3:1 ratio of p101 baculovirus to p110γ baculovirus. Sf9 cells were grown to 1×10^7 total cells/mL in 10L bioreactors and harvested 48-72 hours post infection. Samples of infected cells were then tested for expression of p101/p110γ PI3 kinase by immunoprecipitation and Western Blot analysis methods (see below). To purify PI3Kγ, 4 volumes of room temperature hypotonic lysis buffer (1 mM MgCl2, 1 mM DTT, 5 mM EGTA, 1 mM Pefabloc, 0.5 μM aprotinin, 5 μM leupeptin, 2 μM pepstatin, 5 μM E64, pH 8) per gram of cell paste, was poured onto frozen cell pellets with stirring, then lysed in a nitrogen “bomb” at 400 psi (599HC […], Parr Instrument Co, Moline, Ill.). NaCl was added to 150 mM, and sodium cholate was added to 1% and mixed for another 45 minutes. The lysates were clarified by centrifugation for 25 minutes at 14,000 rpm. The lysates were then loaded over anti-glu-linked Protein-G Sepaharose beads (Covance Research Products, Richmond, Calif.) using 20 mL resin/50 g cell paste. The column was washed with 15 volumes of wash buffer (1 mM DTT, 0.2 mM EGTA, 1 mM Pefabloc, 0.5 μM aprotinin, 5 μM leupeptin, 2 μM pepstatin, 5 μM E64, 150 mM NaCl, 1% sodium cholate, pH 8). PI3Kγ was eluted with 6 column volumes of wash buffer that contain 100 μg/mL of a peptide that competes for binding of the glu tag. The column fractions with the eluted protein (determined by taking OD280 readings) were collected and dialyzed in 0.2 mM EGTA, 1 mM DTT, 1 mM Pefabloc, 5 μM leupeptin, 0.5% sodium cholate, 150 mM NaCl, and 50% glycerol, pH 8. The fractions were stored at -80° C. until further use. Spodtera frugiperda cells were coinfected with baculovirus expressing a glu-tagged G protein β1 and baculovirus expressing a G protein […], at a 1:1 ratio of glu-tagged G protein β1 baculovirus to G protein β2 baculovirus. Sf9 cells are grown in 10 L bioreactors and harvested 48-72 hours post infection. Samples of infected cells were tested for G protein β1/β2 expression by Western Blot analysis, as described below. Cell lysates were homogenized and loaded onto a column of glu-tagged beads as in Biological Example 1 and competed off the column with a glu peptide and processed as described in Biological Example 1. The inhibitory properties of the compounds in Table 1 were assayed in an in vitro PI3K assay. In a 96-well polypropylene plate, each well was spotted with 2 μL of 50 times the desired final concentration of compound in DMSO. Purified recombinant p101/p110γ protein (0.03 μg; 2.7 nM) and G protein β1/γ2 subunits (0.09 μg; 57.7 nM) for each reaction was combined in the assay buffer (30 mM HEPES, 100 mM NaCl, 1 mM EGTA, and 1 mM DTT). ATP and [γ-^32P-ATP] (0.09 μCi) were added to this mixture so that the final ATP concentration in the reaction was 20 μM. Lipid micelles were formed by sonicating phosphatidylinositol-4,5-diphosphate (PIP2), phosphatidylethanolamine (PE), and Na-cholate in the assay buffer for 10 minutes, adding MgCl2 and incubating on ice for 20 minutes, for final concentrations of 25 μM PIP2, 300 μM PE, 0.02% Na-cholate, and 10 mM MgCl2 in the reaction. The reactions were started by adding equal volumes lipid and enzyme mixture in a total volume of 50 μL, allowed to run for 20 minutes at room temperature, and stopped with 100 μL 75 mM H3PO4. The lipid product was transferred to a glass fiber filter plate and washed with 74 mM H3PO4 several times. The presence of radioactive lipid product (PIP3) was measured by adding Wallac Optiphase mix to each well and counting in a Wallac 1450 Trilux plate reader (PerkinElmer Life Sciences Inc., Boston, Mass. 02118). The IC50 for each compound tested is reported in μM in Table 1: […]

Row | Molecule | IC50 [1] [nM] | melting point [°C]
1 | 3-Cycloheptylmethoxy-5-methoxy-benzofuran-2-carboxylic acid (1H-tetrazol-5-yl)-amide [Example 29] | 108 | 
2 | 3-Cycloheptyloxy-5-methoxy-benzofuran-2-carboxylic acid (1H-tetrazol-5-yl)-amide [Example 26] | 97 | 
3 | 5-Chloro-3(1-methyl-cyclopropoxymethoxy)-benzofuran-2-carboxylic acid (1H-tetrazol-5-yl)-amide [Example 34] | 1460 | 
4 | 5-Methoxy-3-(1-methyl-cyclomethoxy)-benzofuran-2-carboxylic acid (1H-tetrazol-5-yl)-amide [Example 24] | 220 | 
5 | 5-Methoxy-3-(6-methyl-cyclohex-3-enylmethoxy)-benzofuran-2-carboxylic acid (1H-tetrazol-5-yl)-amide [Example 16] | 185 | 
6 | COc1ccc2oc(C(=O)Nc3nnn[nH]3)c(OC3CCCCC3C)c2c1 (stereo not drawn) [Example 5, 5-Methoxy-3-(2-methyl-cyclohexyloxy)-benzofuran-2-carboxylic acid (1H-tetrazol-5-yl)-amide] | 180 | 
7 | C=C(C)C1CCC(C)C(Oc2c(C(=O)Nc3nnn[nH]3)oc3ccc(OC)cc23)C1 (stereo not drawn) [Example 7, 3-(5-Isopropenyl-2-methyl-cyclohexyloxy)-5-methoxy-benzofuran-2-carboxylic acid (1H-tetrazol-5-yl)-amide] | 700 | 
8 | COc1ccc2oc(C(=O)Nc3nnn[nH]3)c(OC3CCCC3C)c2c1 (stereo not drawn) [Example 8, 5-Methoxy-3-(2-methyl-cyclopentyloxy)-benzofuran-2-carboxylic acid (1H-tetrazol-5-yl)-amide] | 305 | 
9 | COc1ccc2oc(C(=O)Nc3nnn[nH]3)c(OC3CCCC(C)C3)c2c1 (stereo not drawn) [Example 14, 5-Methoxy-3-(3-methyl-cyclohexyloxy)-benzofuran-2-carboxylic acid (1H-tetrazol-5-yl)-amide] | 67 | 
10 | COc1ccc2oc(C(=O)Nc3nnn[nH]3)c(OC3CC(C)CC(C)C3)c2c1 (stereo not drawn) [Example 17, 3-(3,5-Dimethyl-cyclohexyloxy)-5-methoxy-benzofuran-2-carboxylic acid (1H-tetrazol-5-yl)-amide] | 100 | 
11 | COc1ccc2oc(C(=O)Nc3nnn[nH]3)c(OC3CCCCC3C)c2c1 (stereo not drawn) [Example 18, 5-Methoxy-3-(2-methyl-cyclohexyloxy)-benzofuran-2-carboxylic acid (1H-tetrazol-5-yl)-amide] | 130 | 
12 | O=C(Nc1nnn[nH]1)c1oc2ccc(Cl)cc2c1OCC1CCC1 [Example 35, 5-Chloro-3-cyclobutylmethoxy-benzofuran-2-carboxylic acid (1H-tetrazol-5-yl)-amide] | 3100 | 
13 | O=C(Nc1nnn[nH]1)c1oc2ccc(Cl)cc2c1OC1CCCCCC1 [Example 36, 5-Chloro-3-cycloheptyloxy-benzofuran-2-carboxylic acid (1H-tetrazol-5-yl)-amide] | 950 | 
14 | O=C(Nc1nnn[nH]1)c1oc2ccc(Cl)cc2c1OC1CCC1 [Example 37, 5-Chloro-3-cyclobutoxy-benzofuran-2-carboxylic acid (1H-tetrazol-5-yl)-amide] | 2020 | 
15 | O=C(Nc1nnn[nH]1)c1oc2ccc(Cl)cc2c1OCC1CCCC1 [Example 38, 5-Chloro-3cyclopentylmethoxy-benzofuran-2-carboxylic acid (1H-tetrazol-5-yl)-amide] | 1040 | 
16 | CC(Oc1c(C(=O)Nc2nnn[nH]2)oc2ccc(Cl)cc12)C1CCCC1 (stereo not drawn) [Example 39, 5-Chloro-3-(1-cyclopentyl-ethoxy)-benzofuran-2-carboxylic acid (1H-tetrazol-5-yl)-amide] | 2700 | 
17 | CC1CCC(Oc2c(C(=O)Nc3nnn[nH]3)oc3ccc(Cl)cc23)CC1C (stereo not drawn) [Example 40, 5-Chloro-3-(3,4-dimethyl-cyclohexyloxy)-benzofuran-2-carboxylic acid (1H-tetrazol-5-yl)-amide] | 1100 | 
18 | CC1CC(C)CC(Oc2c(C(=O)Nc3nnn[nH]3)oc3ccc(Cl)cc23)C1 (stereo not drawn) [Example 41, 5-Chloro-3-(3,5-dimethyl-cyclohexyloxy)-benzofuran-2-carboxylic acid (1H-tetrazol-5-yl)-amide] | 480 | 
19 | O=C(Nc1nnn[nH]1)c1oc2ccc(Cl)cc2c1OC1CCCCC1 [Example 42, 5-Chloro-3-cyclohexyloxy-benzofuran-2-carboxylic acid (1H-tetrazol-5-yl)-amide] | 645 | 
20 | O=C(Nc1nnn[nH]1)c1oc2ccc(Cl)cc2c1OCC1CC1 [Example 44, 5-Chloro-3-cyclopropylmethoxy-benzofuran-2-carboxylic acid (1H-tetrazol-5-yl)-amide] | 9420 | 243 to 244
